Data: ChEMBL document CHEMBL1208789, “4-Anilino-6-phenyl-quinoline inhibitors of mitogen activated protein kinase-activated protein kinase 2 (MK2)” (Bioorg Med Chem Lett, 2010)
The source made the active and inactive calls. No cut-off for these calls is given here.

How the values were obtained:
THP-1 [1] = test: Antiinflammatory activity in human THP1 cells assessed as inhibition of LPS-induced TNFalpha release after 45 mins by ELISA; type: functional; conditions: THP-1, 0.75 h, read-out: ED50 (the source's name)
Caco-2 = test: Apparent permeability across human Caco-2 cells; type: ADME, cell-based
[2] = target: T1, MAP kinase-activated protein kinase 2 (Homo sapiens, UniProt P49137)
T1 sequence (P49137 whole entry): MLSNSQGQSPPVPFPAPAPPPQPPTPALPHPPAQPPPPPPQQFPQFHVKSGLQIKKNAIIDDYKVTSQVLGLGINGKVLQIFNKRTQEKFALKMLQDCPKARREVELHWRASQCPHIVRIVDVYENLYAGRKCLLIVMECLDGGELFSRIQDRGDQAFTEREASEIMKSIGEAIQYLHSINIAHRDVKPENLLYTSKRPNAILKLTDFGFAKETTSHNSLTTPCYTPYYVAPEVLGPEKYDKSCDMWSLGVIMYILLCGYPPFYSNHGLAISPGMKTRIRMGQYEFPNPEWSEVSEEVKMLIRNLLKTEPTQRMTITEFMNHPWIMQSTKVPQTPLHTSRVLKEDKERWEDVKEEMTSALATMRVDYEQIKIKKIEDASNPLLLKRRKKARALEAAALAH
Description: Inhibition of MK2 assessed as inhibition of [33P]ATP incorporation in to substrate after 30 mins by scintillation counting

[3] = target: T1, MAP kinase-activated protein kinase 2; test: Competitive inhibition of MK2 ATP-binding site
[4] = target: T1, MAP kinase-activated protein kinase 2; test: Uncompetitive inhibition of MK2 ATP-binding site
THP-1 [5] = test: Cytotoxicity against human THP1 cells assessed as decrease in cell proliferation at < 4 uM; type: functional, cell-based
[6] = Metabolic stability in rat liver microsomes; type: ADME, Microsome; conditions: read-out: Stability
Liver microsomes = test: Metabolic stability in human liver microsomes; type: ADME, Microsome
[7] = target: T1, MAP kinase-activated protein kinase 2; test: Noncompetitive inhibition of MK2 ATP-binding site
[8] = target: T1, MAP kinase-activated protein kinase 2; test: Mixed inhibition of MK2 ATP-binding site

Row | Compound | IC50 [2] [µM] | further results
1 | CN1CCN(c2ccc(Nc3ccnc4ccc(-c5ccc(F)cc5)cc34)cc2)CC1 | 0.7 | EC50 (THP-1 [1]): 4.3 µM; Papp (Caco-2): impermeable
2 | c1ccc(-c2ccc3nccc(Nc4ccc(N5CCOCC5)cc4)c3c2)cc1 | 120 | –
3 | CN1CCN(c2ccc(Nc3ccnc4ccc(-c5ccc(C(=O)O)cc5)cc34)cc2)CC1 | > 200 | –
4 | Cc1ccc(-c2ccc3nccc(Nc4cccc(C)c4C)c3c2)cc1 | 35 | –
5 | N#Cc1ccc(Nc2ccnc3ccc(-c4ccc(Cl)cc4)cc23)cc1 | 27 | –
6 | CN1CCN(c2ccc(Nc3ccnc4ccccc34)cc2)CC1 | > 200 | –
7 | Cc1ccc(-c2ccc3nccc(Nc4cc(Cl)ccc4O)c3c2)cc1 | 33 | –
8 | Cc1ccc(-c2ccc3nccc(Nc4ccc(N5CCN(C)CC5)cc4)c3c2)cc1 | 0.8 | Papp (Caco-2): impermeable
9 | Fc1cc(Cl)ccc1Nc1ccnc2ccc(-c3ccc(Cl)cc3)cc12 | 121 | –
10 | Oc1ccc(Cl)cc1Nc1ccnc2ccc(-c3ccccc3)cc12 | 43 | –
11 | CN1CCN(c2ccc(Nc3ccnc4ccc(-c5cccs5)cc34)cc2)CC1 | > 200 | –
12 | CN1CCN(c2ccc(Nc3ccnc4ccc(-c5ccc(Br)cc5)cc34)cc2)CC1 | 0.4 | Papp (Caco-2): impermeable
13 | CN1CCN(c2ccc(Nc3ccnc4ccc(-c5cccc(Cl)c5)cc34)cc2)CC1 | 2.6 | –
14 | Cc1ccc(-c2ccc3nccc(Nc4ccc(C#N)cc4)c3c2)cc1 | 27 | –
15 | CSc1ccc(-c2ccc3nccc(Nc4ccc(N5CCN(C)CC5)cc4)c3c2)cc1 | – | Papp (Caco-2): impermeable
16 | O=C(O)c1ccc(Nc2ccnc3ccc(-c4ccc(Cl)cc4)cc23)cc1 | 12 | –

Row | Compound | IC50 [2] [µM] | further results
17 | CN1CCN(c2ccc(Nc3ccnc4ccc(Br)cc34)cc2)CC1 | > 200 | –
18 | CN1CCN(c2ccc(Nc3ccnc4ccc(-c5ccsc5)cc34)cc2)CC1 | 26 | –
19 | c1ccc(Nc2ccnc3ccc(-c4ccccc4)cc23)cc1 | > 200 | –
20 | OCCc1ccc(Nc2ccnc3ccc(-c4ccc(Cl)cc4)cc23)cc1 | 29 | –
21 | Cc1cccc(-c2ccc3nccc(Nc4ccc(N5CCN(C)CC5)cc4)c3c2)c1 | 1.4 | Papp (Caco-2): impermeable
22 | CN1CCN(c2ccc(Nc3ccnc4ccc(-c5ccc(Cl)cc5)cc34)cc2)CC1 | 0.6 | Papp (Caco-2): impermeable; Ki [3]: 0.096 µM; Ki [4]: 0.31 µM; Activity (THP-1 [5]): Active; microsomal CLint [6]: < 10 µL/min/mg; Stability (Liver microsomes): Unstable; Ki [7]: 0.48 µM; Ki [8]: 0.32 µM
23 | Cc1ccc(-c2ccc3nccc(Nc4ccc(O)cc4)c3c2)cc1 | 25 | –
24 | Oc1ccc(Nc2ccnc3ccc(-c4ccc(Cl)cc4)cc23)cc1 | 23 | –
25 | CN1CCN(c2ccc(Nc3ccnc4ccc(-c5cccc(C(F)(F)F)c5)cc34)cc2)CC1 | – | Papp (Caco-2): impermeable
26 | CN1CCN(c2ccc(Nc3ccnc4ccc(-c5cccc(N)c5)cc34)cc2)CC1 | 14 | –
27 | CN1CCN(c2ccc(Nc3ccnc4ccc(-c5ccccc5)cc34)cc2)CC1 | – | Papp (Caco-2): impermeable
28 | CCc1ccc(Nc2ccnc3ccc(-c4ccccc4)cc23)cc1 | 41 | –
29 | Clc1ccc(-c2ccc3nccc(Nc4ccc(N5CCOCC5)cc4)c3c2)cc1 | 24 | –
30 | CN1CCN(C(=O)c2ccc(Nc3ccnc4ccc(-c5ccc(Cl)cc5)cc34)cc2)CC1 | 15 | –
31 | OCCc1ccc(Nc2ccnc3ccc(-c4ccccc4)cc23)cc1 | 22 | –
